Values quoted from earlier work in patent US20020137785A1, “Inflammatory mechanism modulator composition and methods with anti-asthmatic properties” (priority 2001, published 2002).

How the values were obtained:
[1] = people with septic shock; NAC alone; reduced from 21 days
[2] = intravenous; coronary artery disease; tachycardia induced in the electrophysiology laboratory

## CC(=O)N[C@@H](CS)C(=O)O [NAC, N-acetyl-cysteine]
[1]
  ventilator time (mechanical breathing): about 7 days

## O=S(=O)([O-])[O-].[Mg+2] [magnesium sulfate]
[2]
  aborting monomorphic ventricular tachycardia: ineffective
